# Laboratory results: US20100292327A1, “TREATMENT OF ASPIRIN RESISTANCE WITH BETAINE AND/OR BETAINE ENRICHED MOLASSES” (priority 2007, published 2010)
# Values joined by “and” are separate entries in the source; they are usually repeats but may differ in a detail not shown here. Identical values can stand only once. Like-named read-outs stand apart in the source and are kept apart here.
# Legend:
# [1] = system: platelet aggregation in whole blood, activation by collagen; assay: Multiplate whole blood aggregometry, COL test, blood supplemented with betaine (Example 1); type: cell-based, human (CAD patients); set-up: Collagen aggregation / Collagen aggregation, mean: unit not given here; conditions: for Collagen aggregation / Collagen aggregation, mean: betaine 50 μg/ml; for inhibition at 50 µg/mL: Homo sapiens, Platelet
# Method: (§1) Protocol Blood of 24 CAD patients on Aspirin or Aspirin+Clopidogrel is supplemented with saline or Betaine (50 μg/ml) and tested for Whole Blood Aggregometry using a Multiplate® (Dynabyte Informations System GmbH, Munich) whole blood aggregometer different agonists where used i.e.:
# (§2) ASPI test: Activation by arachidonic acid to detect Aspirin effects. COL test: Collagen activates the collagen receptor, which leads to a release of endogenous arachidonic acid, which is converted to TXA2 and activates the platelet. ADP test: ADP stimulates platelet activation by the ADP receptors. The most important ADP receptor (P2Y12) is blocked by clopidogrel, prasugrel and ticlopidine. TRAP test: TRAP-6 stimulates the thrombin receptor on the platelet surface. TRAP test allows detecting GPIIb/IIIa antagonists.
# [2] = system: whole blood aggregation, Collagen; assay: Whole blood aggregation (Multiplate) COL test before and one hour after oral betaine (Example 11); type: in vivo, human (patients); conditions: for Collagen aggregation (AUC): individual patients (one line per patient), one hour after 4 g betaine oral, on aspirin 100 mg/day
# Method: (§3) 20 patients attending Hospital cardiovascular consultation were enrolled for the study. Patients were all on 100 mg/day aspirin for their cardiovascular protection. Necessary ethical clearance was obtained from Hospital IRB.
# (§4) Whole blood aggregation profile using Multiplate® instrument was assessed for each patient before and one hour after oral administration of 4 g of betaine. Blood was sampled on hirudin as anticoagulant.
# (§5) Using the different test procedures available for the Multiplate® comprehensive information on platelet function and antiplatelet effects of betaine vs. basal values was assessed. Agonists were prepared in 1 ml solutions according to Multiplatc technical sheets and were used in the following volumes or concentrations: ASPI test: 20 μL, COL test: 20 μL, TRAP test: 20 μL, ADP test: 20 μL, RISTO test: 40 μL (1.2 mg/ml).
# [3] = system: whole blood aggregation, ADP; assay: Whole blood aggregation (Multiplate) ADP test before and one hour after oral betaine (Example 11); type: in vivo, human (patients); conditions: for ADP aggregation (AUC): individual patients (one line per patient), one hour after 4 g betaine oral, on aspirin 100 mg/day
# Method: as §3, §4, §5
# [4] = system: platelet aggregation in whole blood, activation by arachidonic acid; assay: Multiplate whole blood aggregometry, ASPI test, blood supplemented with betaine (Example 1); type: cell-based, human (CAD patients); set-up: AspiTest aggregation / AspiTest aggregation, mean: unit not given here; conditions: for AspiTest aggregation / AspiTest aggregation, mean: betaine 50 μg/ml; for inhibition at 50 µg/mL: Homo sapiens, Platelet
# Method: as §1, §2
# [5] = system: whole blood aggregation, TRAP test; assay: Whole blood aggregation (Multiplate) TRAP test before and one hour after oral betaine (Example 11); type: in vivo, human (patients); conditions: for TRAP aggregation (AUC): individual patients (one line per patient), one hour after 4 g betaine oral, on aspirin 100 mg/day
# Method: as §3, §4, §5
# [6] = system: whole blood aggregation, AspiTest (arachidonic acid); assay: Whole blood aggregation (Multiplate) ASPI test before and one hour after oral betaine (Example 11); type: in vivo, human (patients); conditions: for AspiTest aggregation (AUC): individual patients (one line per patient), one hour after 4 g betaine oral, on aspirin 100 mg/day
# Method: as §3, §4, §5
# [7] = system: platelet aggregation in whole blood, activation by TRAP-6; assay: Multiplate whole blood aggregometry, TRAP test, blood supplemented with betaine (Example 1); type: cell-based, human (CAD patients); set-up: TRAP aggregation / TRAP aggregation, mean: unit not given here; conditions: for TRAP aggregation / TRAP aggregation, mean: betaine 50 μg/ml; for inhibition at 50 µg/mL: Homo sapiens, Platelet, betaine 50 μg/ml vs. saline
# Method: as §1, §2
# [8] = system: platelet aggregation in whole blood, activation by ADP; assay: Multiplate whole blood aggregometry, ADP test, blood supplemented with betaine (Example 1); type: cell-based, human (CAD patients); set-up: ADP aggregation / ADP aggregation, mean: unit not given here; conditions: for ADP aggregation / ADP aggregation, mean: betaine 50 μg/ml; for inhibition at 50 µg/mL: Homo sapiens, Platelet, betaine 50 μg/ml vs. saline
# Method: as §1, §2
# [9] = system: whole blood aggregation, Ristocetin; assay: Whole blood aggregation (Multiplate) RISTO test before and one hour after oral betaine (Example 11); type: in vivo, human (patients); conditions: for Ristocetin aggregation (AUC): individual patients (one line per patient), one hour after 4 g betaine oral, on aspirin 100 mg/day
# Method: as §3, §4, §5
# [10] = ASA and ASA/clopidogrel non responders, individual patients (one line per patient)
# [11] = betaine 50 μg/ml vs. saline, p<0.05
# [12] = individual patients # 1-24 (one line per patient), blood of CAD patients on aspirin or aspirin+clopidogrel
# [13] = ASA poor responders, after 4 g betaine oral
# [14] = after 4 g betaine oral, patients on aspirin 100 mg/day
# [15] = 20 patients, after 4 g betaine by oral route
# [16] = ASA responders, after 4 g betaine oral
smiles,measurement,setting,value
"C[N+](C)(C)CC(=O)O [betaine, glycine betaine of formula (CH3)3N^+(CH2) COO^−]",Collagen aggregation,[1]; [10],42 and 30 and 76 and 91 (2×) and 75 (2×) and 88 and 21 and 24
same,inhibition at 50 µg/mL,"[1]; ASA and ASA/clopidogrel non responders, betaine 50 μg/ml vs. saline, P (Student) 0.0242, read-out: Additional inhibition, Collagen",17%
same,inhibition at 50 µg/mL,"[1]; all 24 patients, betaine 50 μg/ml vs. saline, P (Student) 0.0006, read-out: Betaine additional inhibition, Collagen",20%
same,synergistic effect with aspirin and/or clopidogrel on collagen,[1]; [11],significant
same,Collagen aggregation,[1]; [12],4 and 3 (2×) and 35 and 21 (2×) and 75 (2×) and 91 (2×) and 26 and 34 and 29 and 59 and 25 and 24 and 42 and 2 and 30 and 8 and 17 and 76 and 88 and 46
same,"Collagen aggregation, mean","[1]; mean of 10 ASA and ASA/clopidogrel non responders, saline mean 74.4",61.3
same,"Collagen aggregation, mean","[1]; mean of 24 patients, saline mean 48.46",38.54
same,"Difference Vs. basal, Collagen","[2]; 20 patients, after 4 g betaine by oral route, P Student 0.045",−19%
same,"Mean of AUC aggregations, Collagen","[2]; 20 patients, after 4 g betaine by oral route, basal mean 30.35",24.65
same,"Difference Vs. basal, Collagen",[2]; [13],−1%
same,Collagen aggregation (AUC),[2]; ASA poor responders,47 and 48 and 32 and 18 and 10 and 58 and 65 and 57
same,"Difference Vs. basal, Collagen","[2]; ASA responders, after 4 g betaine oral, P Student 0.039",−41%
same,Collagen aggregation (AUC),[2]; ASA responders,11 and 7 and 29 and 12 and 23 and 4 and 10 (2×) and 3 (2×) and 30 and 16
same,"effect on platelet function, collagen aggregation",[2]; [14],ameliorated significantly
same,"Collagen aggregation, mean","[2]; mean of 8 ASA poor responders after 4 g betaine oral, basal mean 42.375",41.875
same,"Collagen aggregation, mean","[2]; mean of 12 ASA responders after 4 g betaine oral, basal mean 22.33",13.17
same,"Difference Vs. basal, ADP",[3]; [15],2%
same,"Mean of AUC aggregations, ADP","[3]; 20 patients, after 4 g betaine by oral route, basal mean 55.55",56.5
same,"Difference Vs. basal, ADP","[3]; ASA poor responders, after 4 g betaine oral, P Student 0.5",−7%
same,ADP aggregation (AUC),[3]; ASA poor responders,71 and 53 and 66 and 60 and 38 and 32 and 70 and 40
same,"Difference Vs. basal, ADP",[3]; [16],8%
same,ADP aggregation (AUC),[3]; ASA responders,2 and 121 and 64 (2×) and 80 and 93 and 14 and 51 and 47 and 44 and 75 and 45
same,"ADP aggregation, mean","[3]; mean of 8 ASA poor responders after 4 g betaine oral, basal mean 57.75",53.75
same,"ADP aggregation, mean","[3]; mean of 12 ASA responders after 4 g betaine oral, basal mean 54.08",58.33
same,AspiTest aggregation,[4]; [10],121 and 75 and 97 and 125 and 87 and 94 (2×) and 84 and 49 and 61
same,inhibition at 50 µg/mL,"[4]; ASA and ASA/clopidogrel non responders, betaine 50 μg/ml vs. saline, P (Student) 0.0043, read-out: Additional inhibition, AspiTest",20%
same,inhibition at 50 µg/mL,"[4]; all 24 patients, betaine 50 μg/ml vs. saline, P (Student) 0.0109, read-out: Betaine additional inhibition, AspiTest",17%
same,synergistic effect with aspirin and/or clopidogrel on AspiTest,[4]; [11],significant
same,AspiTest aggregation,[4]; [12],10 and 22 and 54 and 18 and 84 and 94 (2×) and 62 and 29 and 21 and 49 and 17 (2×) and 5 and 61 and 121 and 13 and 75 and 12 and 6 and 97 and 125 and 87 and 77
same,"AspiTest aggregation, mean","[4]; mean of 10 ASA and ASA/clopidogrel non responders, saline mean 111.1",88.7
same,"AspiTest aggregation, mean","[4]; mean of 24 patients, saline mean 62.54",52.08
same,"Difference Vs. basal, TRAP",[5]; [15],0%
same,"Mean of AUC aggregations, TRAP","[5]; 20 patients, after 4 g betaine by oral route, basal mean 91.95",91.9
same,"Difference Vs. basal, TRAP",[5]; [13],3%
same,TRAP aggregation (AUC),[5]; ASA poor responders,106 (2×) and 66 (2×) and 133 and 103 and 60 and 95
same,"Difference Vs. basal, TRAP",[5]; [16],−2%
same,TRAP aggregation (AUC),[5]; ASA responders,64 and 154 and 115 and 136 and 131 and 29 and 80 and 77 (2×) and 67 and 104 and 69
same,"TRAP aggregation, mean","[5]; mean of 8 ASA poor responders after 4 g betaine oral, basal mean 89",91.875
same,"TRAP aggregation, mean","[5]; mean of 12 ASA responders after 4 g betaine oral, basal mean 93.92",91.92
same,"Difference Vs. basal, AspiTest","[6]; 20 patients, after 4 g betaine by oral route, P Student 0.57",5%
same,"Mean of AUC aggregations, AspiTest","[6]; 20 patients, after 4 g betaine by oral route, basal mean 23.05",24.15
same,"Difference Vs. basal, AspiTest",[6]; [13],3%
same,AspiTest aggregation (AUC),[6]; ASA poor responders,24 and 74 and 81 and 69 and 46 and 27 and 35 and 52
same,"Difference Vs. basal, AspiTest","[6]; ASA responders, after 4 g betaine oral, P Student 0.6",14%
same,AspiTest aggregation (AUC),[6]; ASA responders,11 and 7 and 4 (2×) and 9 (2×) and 5 and 1 and 3 (2×) and 6 and 13
same,"AspiTest aggregation, mean","[6]; mean of 8 ASA poor responders after 4 g betaine oral, basal mean 49.375",51
same,"AspiTest aggregation, mean","[6]; mean of 12 ASA responders after 4 g betaine oral, basal mean 5.5",6.25
same,TRAP aggregation,[7]; [10],155 and 141 and 93 and 179 and 120 and 100 and 67 and 103 (2×) and 29
same,inhibition at 50 µg/mL,"[7]; ASA and ASA/clopidogrel non responders, P (Student) 0.093, read-out: Additional inhibition, TRAP",19%
same,inhibition at 50 µg/mL,"[7]; all patients, P (Student) 0.0392, read-out: Betaine additional inhibition, TRAP",13%
same,TRAP aggregation,[7]; [12],60 (2×) and 102 and 79 and 67 and 103 (2×) and 87 and 84 and 31 and 153 and 152 and 29 and 155 and 141 and 83 and 30 and 22 and 93 and 179 and 120 and 100 and 127
same,"TRAP aggregation, mean","[7]; mean of 10 ASA and ASA/clopidogrel non responders, saline mean 133.7",109
same,"TRAP aggregation, mean","[7]; mean of patients, saline mean 108",93.91
same,ADP aggregation,[8]; [10],173 and 70 and 89 (2×) and 86 and 90 and 63 and 77 and 83 and 56
same,inhibition at 50 µg/mL,"[8]; ASA and ASA/clopidogrel non responders, P (Student) 0.449, read-out: Additional inhibition, ADP",5%
same,inhibition at 50 µg/mL,"[8]; all patients, P (Student) 0.067, read-out: Betaine additional inhibition, ADP",8%
same,ADP aggregation,[8]; [12],44 and 1 and 68 and 46 and 63 and 77 and 82 and 57 and 83 and 100 and 81 and 56 and 173 and 4 and 70 and 29 and 6 and 13 and 89 (2×) and 86 and 90 and 115
same,"ADP aggregation, mean","[8]; mean of 10 ASA and ASA/clopidogrel non responders, saline mean 91.8",87.6
same,"ADP aggregation, mean","[8]; mean of patients, saline mean 71.78",66.17
same,"Difference Vs. basal, Ristocetin","[9]; 20 patients, after 4 g betaine by oral route, P Student 0.012",−37%
same,"Mean of AUC aggregations, Ristocetin","[9]; 20 patients, after 4 g betaine by oral route, basal mean 53.4",33.6
same,"Difference Vs. basal, Ristocetin","[9]; ASA poor responders, after 4 g betaine oral, P Student 0.22",−24%
same,Ristocetin aggregation (AUC),[9]; ASA poor responders,62 and 78 and 123 and 81 and 30 and 2 and 43 and 11
same,"Difference Vs. basal, Ristocetin","[9]; ASA responders, after 4 g betaine oral, P Student 0.031",−52%
same,Ristocetin aggregation (AUC),[9]; ASA responders,39 and 10 and 42 and 23 and 35 and 6 and 3 and 21 and 14 (2×) and 26 and 9
same,"effect on platelet function, ristocetin aggregation (agglutination)",[9]; [14],ameliorated significantly
same,"Ristocetin aggregation, mean","[9]; mean of 8 ASA poor responders after 4 g betaine oral, basal mean 70.75",53.75
same,"Ristocetin aggregation, mean","[9]; mean of 12 ASA responders after 4 g betaine oral, basal mean 41.83",20.17
